# Experimental data: patent US20090325964A1, “Piperazine Metabotropic Glutamate Receptor 5 (MGLUR5) Negative Allosteric Modulators For Anxiety/Depression” (Wyeth, priority 2008, published 2009)
# Target: T1, rat mGluR5 receptor (Rattus norvegicus, UniProt P31424)
# T1 construct: expressed in transfected cells; host or cells: HEK-293
# Test: [3H]-MPEP displacement binding assay, HEK-293 cell membranes expressing rat mGluR5
# Conditions: [3H]-MPEP displacement, rat mGluR5; for IC50: no Ki given, read-out: IC50 (printed in the Median Ki column instead of a Ki); for Ki: read-out: Median Ki
# Summary of the method: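 Membranes from HEK-293 cells expressing rat mGluR5 (12-25 μg protein), incubated 60 min at room temperature with 4 nM [3H]-MPEP in 50 mM Tris pH 7.5, then filtered. Nonspecific binding defined with 10 μM MPEP.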
# T1 sequence (P31424 21-1203): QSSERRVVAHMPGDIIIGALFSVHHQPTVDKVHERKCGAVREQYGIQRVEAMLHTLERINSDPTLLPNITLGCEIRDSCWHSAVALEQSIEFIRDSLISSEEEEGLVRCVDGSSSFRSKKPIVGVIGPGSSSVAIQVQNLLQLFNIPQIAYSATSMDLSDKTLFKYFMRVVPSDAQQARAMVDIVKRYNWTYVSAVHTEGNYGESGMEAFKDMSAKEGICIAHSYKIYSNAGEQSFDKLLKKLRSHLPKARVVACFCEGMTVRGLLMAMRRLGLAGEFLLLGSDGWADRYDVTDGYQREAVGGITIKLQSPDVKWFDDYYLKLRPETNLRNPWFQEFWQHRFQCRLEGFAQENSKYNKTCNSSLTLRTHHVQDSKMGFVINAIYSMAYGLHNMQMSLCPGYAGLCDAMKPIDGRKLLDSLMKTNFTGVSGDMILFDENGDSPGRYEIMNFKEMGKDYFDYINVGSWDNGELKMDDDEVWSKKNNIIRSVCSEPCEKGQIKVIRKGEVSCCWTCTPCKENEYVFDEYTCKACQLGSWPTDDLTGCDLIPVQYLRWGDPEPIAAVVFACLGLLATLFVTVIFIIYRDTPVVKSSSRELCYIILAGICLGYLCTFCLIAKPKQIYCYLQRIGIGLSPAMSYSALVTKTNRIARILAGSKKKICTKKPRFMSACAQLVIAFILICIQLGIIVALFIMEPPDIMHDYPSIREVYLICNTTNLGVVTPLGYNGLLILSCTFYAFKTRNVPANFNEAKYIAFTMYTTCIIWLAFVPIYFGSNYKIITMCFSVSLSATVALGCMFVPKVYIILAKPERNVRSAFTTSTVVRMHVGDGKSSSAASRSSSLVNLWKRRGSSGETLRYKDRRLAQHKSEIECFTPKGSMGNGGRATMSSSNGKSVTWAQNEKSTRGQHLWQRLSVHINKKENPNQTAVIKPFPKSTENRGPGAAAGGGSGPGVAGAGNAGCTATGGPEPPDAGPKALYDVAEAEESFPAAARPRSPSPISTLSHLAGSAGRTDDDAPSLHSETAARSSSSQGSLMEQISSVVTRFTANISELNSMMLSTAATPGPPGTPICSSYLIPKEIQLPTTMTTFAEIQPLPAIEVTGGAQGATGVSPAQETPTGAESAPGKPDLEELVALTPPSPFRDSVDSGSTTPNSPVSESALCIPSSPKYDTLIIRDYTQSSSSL
SMILES,IC50 [µM],Ki [µM]
"COc1ccc(C(=O)N2CCN(c3nc4ccc([N+](=O)[O-])cc4s3)CC2)cc1C#Cc1ccccn1 [Compound 282, 2-{4-[4-methoxy-3-(pyridin-2-ylethynyl)benzoyl]piperazin-1-yl}-6-nitro-1,3-benzothiazole]",> 10,
"COc1ccc(C(=O)N2CCN(c3nnc(-c4ncc([N+](=O)[O-])n4C)s3)CC2)cc1C#Cc1ccccn1 [Compound 283, 1-[4-methoxy-3-(pyridin-2-ylethynyl)benzoyl]-4-[5-(1-methyl-5-nitro-1H-imidazol-2-yl)-1,3,4-thiadiazol-2-yl]piperazine]",,2.31
"COc1ccc(C(=O)N2CCN(S(=O)(=O)c3ccc(-n4cnnn4)cc3)CC2)cc1C#Cc1ccccn1 [Compound 284, 1-[4-methoxy-3-(pyridin-2-ylethynyl)benzoyl]-4-{[4-(1H-tetrazol-1-yl)phenyl]sulfonyl}piperazine]",,0.376
"COc1ccc(C(=O)N2CCN(Cc3ccc(Cl)c(Cl)c3)CC2)cc1C#Cc1ccccn1 [Compound 288, 1-(3,4-dichlorobenzyl)-4-[4-methoxy-3-(pyridin-2-ylethynyl)benzoyl]piperazine]",,0.17
"COc1ccc(C(=O)N2CCN(Cc3c(F)cccc3Cl)CC2)cc1C#Cc1ccccn1 [Compound 289, 1-(2-chloro-6-fluorobenzyl)-4-[4-methoxy-3-(pyridin-2-ylethynyl)benzoyl]piperazine]",,0.269
"COc1ccc(C(=O)N2CCN(c3cc4ccccc4s3)CC2)cc1C#Cc1ccccn1 [Compound 290, 1-(1-benzothiophen-2-yl)-4-[4-methoxy-3-(pyridin-2-ylethynyl)benzoyl]piperazine]",> 10,
"COc1ccc(C(=O)N2CCN(c3nnc(-c4ccccc4)[nH]3)CC2)cc1C#Cc1ccccn1 [Compound 291, 1-[4-methoxy-3-(pyridin-2-ylethynyl)benzoyl]-4-(5-phenyl-4H-1,2,4-triazol-3-yl)piperazine]",,0.199
"COc1ccc(C(=O)N2CCN(c3cc(Cl)nc(SC)n3)CC2)cc1C#Cc1ccccn1 [Compound 294, 4-chloro-6-{4-[4-methoxy-3-(pyridin-2-ylethynyl)benzoyl]piperazin-1-yl}-2-(methylthio)pyrimidine]",,0.099
"COc1ccc(C(=O)N2CCN(c3nc(Cl)ncc3F)CC2)cc1C#Cc1ccccn1 [Compound 295, 2-chloro-5-fluoro-4-{4-[4-methoxy-3-(pyridin-2-ylethynyl)benzoyl]piperazin-1-yl}pyrimidine]",,0.102
"COc1ccc(C(=O)N2CCN(c3cc(Cl)nc(C)n3)CC2)cc1C#Cc1ccccn1 [Compound 297, 4-chloro-6-{4-[4-methoxy-3-(pyridin-2-ylethynyl)benzoyl]piperazin-1-yl}-2-methylpyrimidine]",,0.159
"COc1nc(OC)nc(N2CCN(C(=O)c3ccc(OC)c(C#Cc4ccccn4)c3)CC2)n1 [Compound 305, 2,4-dimethoxy-6-{4-[4-methoxy-3-(pyridin-2-ylethynyl)benzoyl]piperazin-1-yl}-1,3,5-triazine]",,0.229
"Cc1ccc(C(=O)N2CCN(c3ncc(Cl)cc3Cl)CC2)cc1C#Cc1ccccn1 [Compound 310, 1-(3,5-dichloropyridin-2-yl)-4-[4-methyl-3-(pyridin-2-ylethynyl)benzoyl]piperazine]",,0.745
"Cc1ccc(C(=O)N2CCN(c3ncccc3Cl)CC2)cc1C#Cc1ccccn1 [Compound 311, 1-(3-chloropyridin-2-yl)-4-[4-methyl-3-(pyridin-2-ylethynyl)benzoyl]piperazine]",,0.14
"O=C(c1ccc(F)c(C#Cc2ccccn2)c1)N1CCN(c2ncccn2)CC1 [Compound 312, 2-{4-[4-Fluoro-3-(pyridin-2-ylethynyl)benzoyl]piperazin-1-yl}pyrimidine]",,0.084
"O=C(c1ccc(F)c(C#Cc2ccccn2)c1)N1CCN(c2ncc(Cl)cc2Cl)CC1 [Compound 314, 1-(3,5-dichloropyridin-2-yl)-4-[4-fluoro-3-(pyridin-2-ylethynyl)benzoyl]piperazine]",,1.84
"O=C(c1ccc(F)c(C#Cc2ccccn2)c1)N1CCN(c2ncccc2Cl)CC1 [Compound 315, 1-(3-chloropyridin-2-yl)-4-[4-fluoro-3-(pyridin-2-ylethynyl)benzoyl]piperazine]",,0.27
"CCOc1ccc(C(=O)N2CCN(c3ncc(Cl)cc3Cl)CC2)cc1C#Cc1ccccn1 [Compound 319, 1-(3,5-dichloropyridin-2-yl)-4-[4-ethoxy-3-(pyridin-2-ylethynyl)benzoyl]piperazine]",,0.652
"CCOc1ccc(C(=O)N2CCN(c3ncccc3Cl)CC2)cc1C#Cc1ccccn1 [Compound 321, 1-(3-chloropyridin-2-yl)-4-[4-ethoxy-3-(pyridin-2-ylethynyl)benzoyl]piperazine]",,0.149
"O=C(c1ccc(OCC2CC2)c(C#Cc2ccccn2)c1)N1CCN(c2ccccn2)CC1 [Compound 323, 1-{[4-(cyclopropylmethoxy)-3-(pyridin-2-ylethynyl)phenyl]carbonyl}-4-pyridin-2-ylpiperazine]",,0.198

SMILES,IC50 [µM],Ki [µM]
"O=C(c1ccc(OCC2CC2)c(C#Cc2ccccn2)c1)N1CCN(c2ncccn2)CC1 [Compound 325, 2-(4-{[4-(cyclopropylmethoxy)-3-(pyridin-2-ylethynyl)phenyl]carbonyl}piperazin-1-yl)pyrimidine]",,1.34
"COc1ccc(C(=O)N2CCN(c3ccccn3)C(=O)C2)cc1C#Cc1ccccn1 [Compound 330, 4-{[4-methoxy-3-(pyridin-2-ylethynyl)phenyl]carbonyl}-1-pyridin-2-ylpiperazin-2-one]",,0.122
"O=C(c1ccc(OC(F)(F)F)c(C#Cc2ccccn2)c1)N1CCN(c2ncccc2Cl)CC1 [Compound 336, 1-(3-chloropyridin-2-yl)-4-[3-(pyridin-2-ylethynyl)-4-(trifluoromethoxy)benzoyl]piperazine]",,1.07
"O=C(c1ccc(OC(F)(F)F)c(C#Cc2ccccn2)c1)N1CCN(c2cccc(C(F)(F)F)c2)CC1 [Compound 337, 1-[3-(pyridin-2-ylethynyl)-4-(trifluoromethoxy)benzoyl]-4-[3-(trifluoromethyl)phenyl]piperazine]",,1.57
"COc1nc(N2CCN(C(=O)c3ccc(OC(F)(F)F)c(C#Cc4ccccn4)c3)CC2)ncc1Br [Compound 339, 5-bromo-4-methoxy-2-{4-[3-(pyridin-2-ylethynyl)-4-(trifluoromethoxy)benzoyl]piperazin-1-yl}pyrimidine]",,0.702
"COc1ccc(C(=O)N2CCN(c3ncccc3Cl)CC2)cc1C#Cc1ccccc1 [Compound 341, 1-(3-chloropyridin-2-yl)-4-[4-methoxy-3-(phenylethynyl)benzoyl]piperazine]",,1.13
"COc1ccc(C(=O)N2CCN(c3ncccc3Cl)CC2)cc1C#Cc1ccccc1[N+](=O)[O-] [Compound 342, 1-(3-chloropyridin-2-yl)-4-{4-methoxy-3-[(2-nitrophenyl)ethynyl]benzoyl}piperazine]",> 10,
"COc1ccc(C(=O)N2CCN(c3ncccc3Cl)CC2)cc1C#Cc1cccc(OCc2ccccc2)c1 [Compound 343, 1-(3-{[3-(benzyloxy)phenyl]ethynyl}-4-methoxybenzoyl)-4-(3-chloropyridin-2-yl)piperazine]",> 10,
"COc1ccc(C(=O)N2CCN(c3ncccc3Cl)CC2)cc1C#Cc1cccc(OC(F)(F)F)c1 [Compound 344, 1-(3-chloropyridin-2-yl)-4-(4-methoxy-3-{[3-(trifluoromethoxy)phenyl]ethynyl}benzoyl)piperazine]",> 10,
"COc1ccc(C(=O)N2CCN(c3ncccc3Cl)CC2)cc1C#Cc1ccc(OCc2ccccc2)cc1 [Compound 346, 1-(3-{[4-(benzyloxy)phenyl]ethynyl}-4-methoxybenzoyl)-4-(3-chloropyridin-2-yl)piperazine]",> 10,
"COc1ccc(C(=O)N2CCN(c3ncccc3Cl)CC2)cc1C#Cc1ccc(C(C)=O)cc1 [Compound 347, 1-{4-[(5-{[4-(3-chloropyridin-2-yl)piperazin-1-yl]carbonyl}-2-methoxyphenyl)ethynyl]phenyl}ethanone]",> 10,
"COc1ccc(C(=O)N2CCN(c3ncccc3Cl)CC2)cc1C#Cc1ccc(OC(F)(F)F)cc1 [Compound 348, 1-(3-chloropyridin-2-yl)-4-(4-methoxy-3-{[4-(trifluoromethoxy)phenyl]ethynyl}benzoyl)piperazine]",> 10,
"COc1ccc(C(=O)N2CCN(c3ncccc3Cl)CC2)cc1C#Cc1ccc(C(F)(F)F)cc1 [Compound 349, 1-(3-chloropyridin-2-yl)-4-(4-methoxy-3-{[4-(trifluoromethyl)phenyl]ethynyl}benzoyl)piperazine]",> 10,
"COc1ccc(C(=O)N2CCN(c3ncccc3Cl)CC2)cc1C#Cc1ccc([N+](=O)[O-])cc1 [Compound 350, 1-(3-chloropyridin-2-yl)-4-{4-methoxy-3-[(4-nitrophenyl)ethynyl]benzoyl}piperazine]",> 10,
"COc1ccc(C(=O)N2CCN(c3ncccc3Cl)CC2)cc1C#Cc1ccccc1F [Compound 351, 1-(3-chloropyridin-2-yl)-4-{3-[(2-fluorophenyl)ethynyl]-4-methoxybenzoyl}piperazine]",,4.3
"COc1ccc(C(=O)N2CCN(c3ncccc3Cl)CC2)cc1C#Cc1ccc(Cl)cc1 [Compound 352, 1-{3-[(4-chlorophenyl)ethynyl]-4-methoxybenzoyl}-4-(3-chloropyridin-2-yl)piperazine]",,3.19
"COc1ccc(C(=O)N2CCN(c3ncccn3)CC2)cc1C#Cc1cccnc1 [Compound 354, 2-{4-[4-methoxy-3-(pyridin-3-ylethynyl)benzoyl]piperazin-1-yl}pyrimidine]",,4.97
"COc1ccc(C(=O)N2CCN(c3ncccn3)CC2)cc1C#Cc1ccncc1 [Compound 355, 2-{4-[4-methoxy-3-(pyridin-4-ylethynyl)benzoyl]piperazin-1-yl}pyrimidine]",,1.57
